Experiment [1] has as its system KB 3-1. Nature of the experiment: Cytotoxic activity of compound was evaluated against KB-VIN cells expressing (P-glycoprotein). It is filed as functional. The settings on record: Homo sapiens, KBVIN; read-out: ED50 (the source's name).
Experiment [2] can be described thus: Cytotoxic activity of compound was evaluated against drug resistant subline KB-7d cells. In kind it is functional. The settings on record: Homo sapiens; read-out: ED50 (the source's name).
Experiment [3] can be described thus: Cytotoxic activity of compound was evaluated against KB cell line. In kind it is functional. The note with it: Homo sapiens, read-out: ED50 (the source's name).
The test system of experiment [4] is MCF7. Nature of the experiment: Cytotoxic activity of compound against MCF-7 tumor cell line. In kind it is functional. The note with it: Homo sapiens, read-out: ED50 (the source's name).
Experiment [5] has as its system MCF7. The experiment in a line: Cytotoxic activity of compound against MCF-7 tumor cell line at conc. of 20 ug/mL. In kind it is functional. The settings on record: Homo sapiens.
Experiment [6] is described as follows: Cytotoxic activity of compound against KB cell lines. In kind it is functional. The note with it: Homo sapiens, read-out: ED50 (the source's name).
Experiment [7] relates to SK-MEL-2. The experiment in a line: Cytotoxic activity of compound against SK-MEL-2 tumor cell line. In kind it is functional. The settings on record: Homo sapiens, read-out: ED50 (the source's name).
Experiment [8] concerns U-87 MG. Nature of the experiment: Cytotoxic activity of compound against U-87-MG tumor cell line. In kind it is functional, U-87MG ATCC. The settings on record: Homo sapiens, read-out: ED50 (the source's name).
The test system of experiment [9] is U-87 MG. Nature of the experiment: Cytotoxic activity of compound against U-87-MG tumor cell line at conc. of 20 ug/mL. It is filed as functional, U-87MG ATCC. The settings on record: Homo sapiens.
The test system of experiment [10] is KB 3-1. Nature of the experiment: Cytotoxic activity of compound was evaluated against KB-VIN cells expressing (P-glycoprotein) at conc. of 20 ug/mL. In kind it is functional. The note with it: Homo sapiens, KBVIN.
Experiment [11] has as its system SK-MEL-2. Nature of the experiment: Cytotoxic activity of compound against SK-MEL-2 tumor cell line at conc. of 20 ug/mL. In kind it is functional. The note with it: Homo sapiens.
In experiment [12] the test system is A549. Nature of the experiment: Cytotoxic activity of compound against A-549 tumor cell line. The note with it: Homo sapiens, read-out: ED50 (the source's name). It is filed as functional.
Experiment [13] in a line: Cytotoxic activity of compound against IA-9 tumor cell line. at conc. of 20 ug/mL. In kind it is functional. The note with it: Homo sapiens.
Experiment [14] in a line: Cytotoxic activity of compound against IA-9 tumor cell line. It is filed as functional. The note with it: Homo sapiens; read-out: ED50 (the source's name).
The test system of experiment [15] is HOS. The experiment in a line: Cytotoxic activity of compound against HOS tumor cell line at conc. of 20 ug/mL. In kind it is functional. The note with it: Homo sapiens.
Experiment [16] is described as follows: Cytotoxic activity of compound against KB cell lines at conc. of 20 ug/mL. The note with it: Homo sapiens. It is filed as functional.
Experiment [17] has as its system HCT-8. The experiment in a line: Cytotoxic activity of compound against HCT-8 tumor cell line; NA denotes not active at conc. of 20 ug/mL. It is filed as functional, cell-based. The settings on record: Homo sapiens.
In experiment [18] the test system is HOS. Nature of the experiment: Cytotoxic activity of compound against HOS tumor cell line. In kind it is functional. The settings on record: Homo sapiens, read-out: ED50 (the source's name).
The test system of experiment [19] is A549. The experiment in a line: Cytotoxic activity of compound against A-549 tumor cell line at conc. of 20 ug/mL. In kind it is functional. The note with it: Homo sapiens.
Experiment [20] relates to KB 3-1. Nature of the experiment: Cytotoxic activity of compound was evaluated against KB-VIN cells at conc. of 20 ug/mL. It is filed as functional. The settings on record: Homo sapiens, KBVIN.
Experiment [21] can be described thus: Cytotoxic activity of compound was evaluated against KB cell line at conc. of 20 ug/mL. It is filed as functional. The settings on record: Homo sapiens.
For experiment [22], the system named is KB 3-1. Nature of the experiment: Cytotoxic activity of compound was evaluated against drug resistant subline KB-7d cells at conc. of 20 ug/mL. In kind it is functional. The note with it: Homo sapiens.
Experiment [23] has as its system HCT-8. The experiment in a line: Cytotoxic activity of compound against HCT-8 tumor cell line. In kind it is functional. The settings on record: Homo sapiens, read-out: ED50 (the source's name).
Experiment [24] concerns KB. The experiment in a line: Cytotoxic activity of compound was evaluated against KB cell line; NA denotes not active at conc. of 20 ug/mL. It is filed as functional, cell-based. The note with it: Homo sapiens.

Usually inhibition stands for the relative decrease from the control value, in per cent.

Values after ≈ are worked out from the molar mass of the structure shown. Active and inactive are the calls of the source. No cut-off for these calls is given here. Some results are limits rather than exact numbers.

On to `C=C1[C@@H](OC(=O)/C=C/c2ccccc2)CC[C@@]2(C)[C@@H](O)[C@H](OC(C)=O)[C@@]34[C@H](C)C(=O)C[C@@H]([C@@H](OC(C)=O)C132)C4(C)C` (some centres undefined), for which the EC50 in [1] is 6.4 µg/mL (≈ 11.3 µM); in experiment [2], 6.1 µg/mL (≈ 10.8 µM); in experiment [3] it was 7.7 µg/mL (≈ 13.6 µM).

As for `CC(=O)OC/C1=C\[C@H](OC(C)=O)[C@]2(C)C[C@H](OC(C)=O)C(C)=C([C@@H](OC(C)=O)/C(OC(C)=O)=C(/C)[C@@H](OC(C)=O)C[C@@H]1OC(=O)/C=C/c1ccccc1)C2(C)C`, the values for the EC50 in experiment [1], in experiment [2] and in experiment [3] were 13.3 µg/mL (≈ 17 µM), 10 µg/mL (≈ 12.8 µM) and 16.6 µg/mL (≈ 21.3 µM), respectively.

On to `C=C1[C@@H](OC(=O)/C=C/c2ccccc2)C[C@H](OC(C)=O)[C@@]2(C)[C@@H](OC(C)=O)[C@H](OC(C)=O)C3=C(C)[C@@H](OC(C)=O)C[C@@H]([C@@H](OC(C)=O)[C@H]12)C3(C)C`, for which the EC50 in experiment [1] amounted to 16.2 µg/mL (≈ 22.9 µM); in experiment [2], 14.2 µg/mL (≈ 20 µM); in experiment [3] it was 16 µg/mL (≈ 22.6 µM).

Consider `C=C1[C@@H](OC(=O)/C=C/c2ccccc2)C[C@H](OC(C)=O)[C@@]2(CCOC(C)=O)[C@@H](OC(C)=O)[C@H](OC(C)=O)[C@]3(O)[C@@]4(C)CO[C@]3(C)C(=O)C[C@H]4[C@@H](OC(C)=O)[C@H]12`, for which the EC50 stood at 17 µg/mL (≈ 22.1 µM) in [1], 4.6 µg/mL (≈ 5.98 µM) in experiment [2] and 6.2 µg/mL (≈ 8.06 µM) in [3].

As for `C=C1[C@@H](OC(=O)/C=C/c2ccccc2)C[C@H](OC(C)=O)[C@@]2(C)[C@@H](OC(C)=O)[C@H](OC(C)=O)C3=C(C)C(=O)C[C@@H]([C@@H](OC(C)=O)[C@H]12)C3(C)C`, the EC50 in experiment [1] came to 3.6 µg/mL (≈ 5.42 µM); in experiment [2] it was 4.1 µg/mL (≈ 6.17 µM); in experiment [3] it was 3.9 µg/mL (≈ 5.87 µM).

Turning to `COc1ccc(-c2cc(=O)c3c(O)cc(O)c(-c4cc(OC)ccc4-c4cc(=O)c5c(O)cc(OC)cc5o4)c3o2)cc1`, the EC50 in experiment [4], in [6], in experiment [7], in [8], in experiment [12] and in experiment [14] was greater than 20 µg/mL each time. The EC50 in experiment [1] and in [18] was greater than 20 µg/mL each time. For the same molecule, the inhibition at 20 µg/mL in experiment [5] worked out at 22%; in experiment [9] it was 17%; in [10], 9%; in experiment [11], 9%; in experiment [13] it was 44%; in [15] it was 25%. Moreover, the inhibition at 20 µg/mL turned out to be 12% in experiment [16] and 58% in experiment [19]. The inhibition entry in experiment [17] is “inactive”.

As for `C=C1[C@@H](OC(=O)/C=C/c2ccccc2)C[C@H](OC(C)=O)[C@]2(C)[C@@H]1C[C@@H]1C[C@H](OC(C)=O)C(C)=C([C@@H](OC(C)=O)[C@@H]2OC(C)=O)C1(C)C`, the EC50 came out at 2.4 µg/mL (≈ 3.69 µM) in experiment [1], 3.5 µg/mL (≈ 5.38 µM) in experiment [2] and 4.8 µg/mL (≈ 7.38 µM) in [3].

In the case of `CC(=O)O[C@H]1C[C@H]2[C@@H](OC(C)=O)/C=C3\C[C@@](C)([C@@H](OC(C)=O)C[C@@H]3OC(C)=O)[C@@H](O)C(=O)C(=C1C)C2(C)C`, the inhibition at 20 µg/mL in [20] was 21%; in experiment [21], 10%; in [22] it was 28%. Further, the figures for the EC50 in experiment [1], in experiment [2] and in experiment [3] were greater than 21 µg/mL, greater than 28 µg/mL and greater than 20 µg/mL, respectively.

For the molecule `COc1ccc(-c2cc(=O)c3c(O)cc(OC)cc3o2)c(-c2c(O)cc(O)c3c(=O)cc(-c4ccc(O)cc4)oc23)c1`, the EC50 in experiment [4] came out at 7.5 µg/mL (≈ 13.2 µM); in experiment [6], 7.5 µg/mL (≈ 13.2 µM); in [7], 7 µg/mL (≈ 12.4 µM); in experiment [8], 7 µg/mL (≈ 12.4 µM); in experiment [12] it was 5.5 µg/mL (≈ 9.71 µM); in experiment [14], 6 µg/mL (≈ 10.6 µM). The EC50 in [23] was 8.5 µg/mL (≈ 15 µM); in experiment [1] it was greater than 20 µg/mL; in [18] it was 8 µg/mL (≈ 14.1 µM). The molecule also gave an inhibition at 20 µg/mL in experiment [10] of 21%.

As for `C=C1[C@@H](OC(=O)/C=C/c2ccccc2)CC[C@@]2(C)[C@@H](OC(C)=O)[C@H](OC(C)=O)C3=C(C)[C@@H](OC(C)=O)C[C@@H]([C@@H](O)[C@H]12)C3(C)C`, the EC50 in experiment [1] was determined as 11 µg/mL (≈ 18.1 µM); in experiment [2] it was 9.4 µg/mL (≈ 15.4 µM); in experiment [3], 12.5 µg/mL (≈ 20.5 µM).

For the molecule `CC(=O)O[C@H]1C(=O)[C@@]2(C)C/C(=C\[C@H](OC(C)=O)[C@@H]3C[C@H](OC(C)=O)C(C)=C1C3(C)C)[C@@H](OC(C)=O)C[C@@H]2OC(C)=O`, the ED50 entry in [24] is “inactive”. Further, the inhibition at 20 µg/mL was found to be 5% in [10] and 22% in experiment [22]. In addition, the EC50 in experiment [1] and in experiment [2] was greater than 20 µg/mL throughout.

Turning to `C=C1[C@@H](OC(=O)/C=C/c2ccccc2)CC[C@@]2(C)[C@@H](OC(C)=O)[C@H](OC(C)=O)[C@@]34[C@H](C)C(=O)C[C@@H]([C@@H](OC(C)=O)C132)C4(C)C` (some centres undefined), the values for the EC50 in [1], in experiment [2] and in experiment [3] were 8.7 µg/mL (≈ 14.3 µM), 7.8 µg/mL (≈ 12.9 µM) and 12.1 µg/mL (≈ 19.9 µM), respectively.

Take `CC(=O)O[C@H]1CC[C@@]2(C)C[C@H](OC(C)=O)C3=C(C)CC(O)[C@@H]([C@@H](OC(C)=O)[C@@H]2C1)C3(C)C` (some centres undefined): 20 µg/mL produced 45% inhibition in [21]. For the same molecule, the EC50 in [1] was 17.3 µg/mL (≈ 38.4 µM); in experiment [2], 9.6 µg/mL (≈ 21.3 µM); in experiment [3], greater than 20 µg/mL.

On to `C=C1[C@@H](OC(C)=O)CC[C@@]2(C)C[C@H](OC(C)=O)C3=C(C)C[C@H](OC(=O)[C@@H](C)C(C)O)[C@@H]([C@@H](OC(C)=O)[C@H]12)C3(C)C` (some centres undefined), for which the EC50 in experiment [1] was determined as 8.6 µg/mL (≈ 15.3 µM); in experiment [2] it was 4.3 µg/mL (≈ 7.64 µM); in experiment [3], 9.8 µg/mL (≈ 17.4 µM).

The values are drawn from ChEMBL document CHEMBL1135356, “Multidrug resistant cancer cells susceptibility to cytotoxic taxane diterpenes from Taxus yunnanensis and Taxus chinensis” (2002).
